Drawing on patent US12065443B2, “Compounds and pharmaceutical compositions thereof for the treatment of diseases” (priority 2017, dated 2024), this text covers IC50 for 26 compounds.

Common to all, as to assay: biochemical
Assay [1] concerns the target T1, SIK1 (Homo sapiens, UniProt P57059).
T1 construct: purchased Carna Biosciences 02-131
The note with it: 33P radioactive SIK kinase assay, AMARA peptide, 10 μM ATP; read-out: SIK1 IC50. As for the experimental part: (§1) The principle of the ^33P radioactive kinase assay consists in measuring the incorporated ^33P into the substrate AMARA peptide when phosphorylated by SIK1, SIK2 or SIK3 using [^33P]-g-ATP, which correlates with kinase activity.
(§2) 1% DMSO and 10 μM staurosporine final concentrations are used as negative and positive controls.
(§3) 11 μL of enzyme-substrate mixture is added on the assay plates. The reactions are started by adding 9 μL ATP mixture, consisting of non-labeled and ^33P-labeled ATP, on the assay plates.
(§4) The reactions are stopped by adding 25 μL phosphoric acid (150 mM) to the reactions.
(§5) After harvesting the kinase reactions, the filter plates are washed 6 times with phosphoric acid (75 mM). […] The top of the plates are sealed with TopSeal-A. Read-out is performed with a TopCount instrument (PerkinElmer Inc.).

Assay [2] deals with T2, SIK2 (Homo sapiens, UniProt Q9H0K1).
T2 construct: purchased ThermoFisher Scientific PV4792
The note with it: 33P radioactive SIK kinase assay, AMARA peptide, 10 μM ATP. As to the method:
as §1, §2, §3, §4, §5

The target of assay [3] is T3, SIK3 (Homo sapiens, UniProt Q9Y2K2).
T3 construct: purchased SignalChem S12-11G-100
As to the method: as §1, §2, §3, §4, §5

Broadly, the IC50 is the concentration needed to halve the response being measured.

Some results are limits rather than exact numbers.

T2 sequence (Q9H0K1 whole entry): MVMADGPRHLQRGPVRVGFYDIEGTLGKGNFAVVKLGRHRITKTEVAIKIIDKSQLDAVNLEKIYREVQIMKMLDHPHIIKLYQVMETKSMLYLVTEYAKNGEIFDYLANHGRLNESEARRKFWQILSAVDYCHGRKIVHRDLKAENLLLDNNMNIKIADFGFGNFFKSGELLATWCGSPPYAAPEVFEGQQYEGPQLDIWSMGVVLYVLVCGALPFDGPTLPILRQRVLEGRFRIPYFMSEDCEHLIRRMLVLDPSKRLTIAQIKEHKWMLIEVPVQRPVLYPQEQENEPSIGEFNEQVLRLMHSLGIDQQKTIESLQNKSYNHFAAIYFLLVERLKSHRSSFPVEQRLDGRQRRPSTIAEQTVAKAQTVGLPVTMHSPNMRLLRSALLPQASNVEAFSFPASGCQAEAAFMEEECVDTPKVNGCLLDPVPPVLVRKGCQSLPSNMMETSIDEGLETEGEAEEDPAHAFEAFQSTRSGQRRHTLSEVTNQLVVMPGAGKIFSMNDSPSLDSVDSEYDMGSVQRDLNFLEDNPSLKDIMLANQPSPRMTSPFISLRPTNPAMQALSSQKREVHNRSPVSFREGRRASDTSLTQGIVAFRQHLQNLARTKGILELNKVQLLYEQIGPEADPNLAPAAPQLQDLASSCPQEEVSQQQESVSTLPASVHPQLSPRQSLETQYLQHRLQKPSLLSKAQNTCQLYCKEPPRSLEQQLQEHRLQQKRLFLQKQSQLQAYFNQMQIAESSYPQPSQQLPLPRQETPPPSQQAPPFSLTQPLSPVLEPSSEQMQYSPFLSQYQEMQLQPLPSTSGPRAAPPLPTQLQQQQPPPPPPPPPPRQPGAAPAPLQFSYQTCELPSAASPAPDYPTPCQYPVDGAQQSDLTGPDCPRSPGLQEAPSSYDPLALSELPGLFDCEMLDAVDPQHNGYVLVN
T3 sequence (Q9Y2K2 whole entry): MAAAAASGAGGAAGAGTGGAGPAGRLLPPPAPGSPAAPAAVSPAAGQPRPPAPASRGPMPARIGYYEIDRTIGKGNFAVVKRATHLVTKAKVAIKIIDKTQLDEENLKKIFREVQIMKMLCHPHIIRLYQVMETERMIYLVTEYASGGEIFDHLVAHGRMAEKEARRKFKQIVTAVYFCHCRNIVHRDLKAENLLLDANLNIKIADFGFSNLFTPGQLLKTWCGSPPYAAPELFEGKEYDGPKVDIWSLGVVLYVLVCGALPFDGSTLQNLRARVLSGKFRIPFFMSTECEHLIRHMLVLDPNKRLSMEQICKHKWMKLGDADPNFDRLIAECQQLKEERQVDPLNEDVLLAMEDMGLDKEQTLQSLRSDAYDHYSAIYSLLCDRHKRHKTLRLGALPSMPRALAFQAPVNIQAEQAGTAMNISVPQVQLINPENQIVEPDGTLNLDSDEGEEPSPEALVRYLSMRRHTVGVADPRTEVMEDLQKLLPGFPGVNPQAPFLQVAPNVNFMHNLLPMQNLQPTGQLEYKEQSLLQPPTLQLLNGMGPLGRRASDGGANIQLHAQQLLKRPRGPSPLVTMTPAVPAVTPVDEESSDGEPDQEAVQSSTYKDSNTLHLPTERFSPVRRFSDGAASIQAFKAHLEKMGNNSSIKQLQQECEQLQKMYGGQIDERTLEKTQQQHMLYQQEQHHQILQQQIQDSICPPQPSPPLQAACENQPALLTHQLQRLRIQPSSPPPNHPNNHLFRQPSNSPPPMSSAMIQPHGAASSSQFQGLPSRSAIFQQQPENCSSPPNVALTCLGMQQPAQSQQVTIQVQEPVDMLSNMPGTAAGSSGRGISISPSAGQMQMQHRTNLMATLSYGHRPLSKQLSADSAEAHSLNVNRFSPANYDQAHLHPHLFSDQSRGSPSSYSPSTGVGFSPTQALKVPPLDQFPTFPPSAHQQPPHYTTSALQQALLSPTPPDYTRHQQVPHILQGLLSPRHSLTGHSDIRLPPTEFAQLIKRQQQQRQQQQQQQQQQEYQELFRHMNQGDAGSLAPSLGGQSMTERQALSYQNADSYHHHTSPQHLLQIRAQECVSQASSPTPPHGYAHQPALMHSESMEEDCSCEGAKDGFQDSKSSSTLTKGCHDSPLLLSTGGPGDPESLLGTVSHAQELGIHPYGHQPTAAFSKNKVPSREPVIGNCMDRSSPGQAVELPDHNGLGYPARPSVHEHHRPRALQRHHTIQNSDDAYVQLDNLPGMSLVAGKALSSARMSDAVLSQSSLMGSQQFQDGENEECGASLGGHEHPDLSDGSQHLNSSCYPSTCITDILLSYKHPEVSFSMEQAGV
T1 sequence (P57059 whole entry): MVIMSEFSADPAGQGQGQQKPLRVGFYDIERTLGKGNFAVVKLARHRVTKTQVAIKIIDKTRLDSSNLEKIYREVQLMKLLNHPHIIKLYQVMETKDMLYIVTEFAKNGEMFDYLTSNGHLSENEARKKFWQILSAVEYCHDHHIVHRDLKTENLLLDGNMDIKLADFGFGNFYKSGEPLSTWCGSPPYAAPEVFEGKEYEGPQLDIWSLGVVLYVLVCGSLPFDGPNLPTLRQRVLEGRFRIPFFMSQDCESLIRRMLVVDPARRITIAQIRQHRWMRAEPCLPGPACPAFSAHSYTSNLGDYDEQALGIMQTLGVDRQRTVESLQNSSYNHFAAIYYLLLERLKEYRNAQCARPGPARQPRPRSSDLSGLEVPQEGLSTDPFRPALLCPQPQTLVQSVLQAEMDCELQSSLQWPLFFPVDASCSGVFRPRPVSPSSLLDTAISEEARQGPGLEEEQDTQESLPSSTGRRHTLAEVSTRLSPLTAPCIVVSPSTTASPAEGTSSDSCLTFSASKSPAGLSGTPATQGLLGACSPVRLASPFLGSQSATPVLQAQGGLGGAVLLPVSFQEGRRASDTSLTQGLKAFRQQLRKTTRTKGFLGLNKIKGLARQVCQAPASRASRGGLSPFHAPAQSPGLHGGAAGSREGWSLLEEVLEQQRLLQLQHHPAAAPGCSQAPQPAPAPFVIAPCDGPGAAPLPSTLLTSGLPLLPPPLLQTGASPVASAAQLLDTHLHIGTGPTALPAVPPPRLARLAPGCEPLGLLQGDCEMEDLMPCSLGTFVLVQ

As for `COc1cc(-c2ccc3c(c2)ncn3-c2cc(OC)c(C(=O)NCC(F)(F)F)c(OC)c2)ccn1` [compound 106, 2,6-dimethoxy-4-[5-(2-methoxy-4-pyridyl)benzimidazol-1-yl]-N-(2,2,2-trifluoroethyl)benzamide], the IC50 fell in the range of 100 to 500 nM in assay [1], 10 to 100 nM in assay [2] and 10 to 100 nM in assay [3].

With `COc1cc(-n2cnc3cc(-c4conc4C)ccc32)cc(OC)c1C(=O)NCC(F)(F)F` [compound 108, 2,6-dimethoxy-4-[5-(3-methylisoxazol-4-yl)benzimidazol-1-yl]-N-(2,2,2-trifluoroethyl)benzamide], the concentration for half-maximal inhibition (IC50) in assay [1], in assay [2] and in assay [3] was 100 to 500 nM each time.

Turning to `COc1cc(-n2cnc3cc(-c4cnn(CC5CCCO5)c4)ccc32)cc(OC)c1C(=O)NCC(F)(F)F` (stereo not drawn) [compound 111, 2,6-dimethoxy-4-[5-[1-(tetrahydrofuran-2-ylmethyl)pyrazol-4-yl]benzimidazol-1-yl]-N-(2,2,2-trifluoroethyl)benzamide], the IC50 in assay [1], in assay [2] and in assay [3] was 0.01 to 10 nM in each case.

With `COc1cc(-n2cnc3cc(-c4cnn(C)c4)ccc32)cc(OC)c1C(=O)NCC(C)C` [compound 113, N-isobutyl-2,6-dimethoxy-4-[5-(1-methylpyrazol-4-yl)benzimidazol-1-yl]benzamide], the IC50 in assay [1], in assay [2] and in assay [3] was 10 to 100 nM each time.

Take `CCC(C)NC(=O)c1c(OC)cc(-n2cnc3cc(-c4cnn(C)c4)ccc32)cc1OC` (stereo not drawn) [compound 114, 2,6-dimethoxy-4-[5-(1-methylpyrazol-4-yl)benzimidazol-1-yl]-N-sec-butyl-benzamide]: the half-inhibitory concentration (IC50) in assay [1], in assay [2] and in assay [3] was 100 to 500 nM each time.

With `COc1cc(-n2cnc3cc(-c4cnn(C)c4)ccc32)cc(OC)c1C(=O)NC(C)C` [compound 115, N-isopropyl-2,6-dimethoxy-4-[5-(1-methylpyrazol-4-yl)benzimidazol-1-yl]benzamide], the IC50 in assay [1], in assay [2] and in assay [3] was 10 to 100 nM each time.

Take `COc1cc(-n2cnc3cc(-c4cnnc(C)c4)ccc32)cc(OC)c1C(=O)NCC(F)(F)F` [compound 121, 2,6-dimethoxy-4-[5-(6-methylpyridazin-4-yl)benzimidazol-1-yl]-N-(2,2,2-trifluoroethyl)benzamide]: the 50% inhibitory concentration (IC50) is more than 500 nM in assay [1], 100 to 500 nM in assay [2] and 10 to 100 nM in assay [3].

With `COc1cc(-n2cnc3cc(-c4cnccn4)ccc32)cc(OC)c1C(=O)NCC(F)(F)F` [compound 128, 2,6-dimethoxy-4-(5-pyrazin-2-ylbenzimidazol-1-yl)-N-(2,2,2-trifluoroethyl)benzamide], the figures for the concentration for half-maximal inhibition (IC50) in assay [1], in assay [2] and in assay [3] were more than 500 nM, more than 500 nM and 100 to 500 nM, respectively.

As for `COc1cc(-c2cnc3cc(-c4cnn(C)c4)ccn23)cc(OC)c1C(=O)NC1CS(=O)(=O)C1` [compound 130, N-(1,1-dioxothietan-3-yl)-2.6-dimethoxy-4-[7-(l-methylpyrazol-4-yl)imidazo[1,2-a]pyridin-3-yl]benzamide], the figures for the half-inhibitory concentration (IC50) in assay [1], in assay [2] and in assay [3] were 10 to 100 nM, 0.01 to 10 nM and 10 to 100 nM, respectively.

Turning to `COCCN(C)C(=O)c1c(OC)cc(-c2cnc3cc(-c4cnn(C)c4)ccn23)cc1OC` [compound 131, 2,6-dimethoxy-N-(2-methoxyethyl)-N-methyl-4-[7-(1-methylpyrazol-4-yl)imidazo[1,2-a]pyridin-3-yl]benzamide], the figures for the IC50 in assay [1], in assay [2] and in assay [3] were more than 500 nM, 100 to 500 nM and 100 to 500 nM, respectively.

Consider `COc1cc(-n2cnc3cc(-c4nccn4C)ccc32)cc(OC)c1C(=O)NCC(F)(F)F` [compound 134, 2,6-dimethoxy-4-[5-(1-methylimidazol-2-yl)benzimidazol-1-yl]-N-(2,2,2-trifluoroethyl)benzamide], for which the IC50 in assay [1] is more than 500 nM; in assay [2], 10 to 100 nM; in assay [3] it was 100 to 500 nM.

Turning to `COc1cc(-n2cnc3cc(-c4cncn4C)ccc32)cc(OC)c1C(=O)NCC(F)(F)F` [compound 135, 2,6-dimethoxy-4-[5-(3-methylimidazol-4-yl)benzimidazol-1-yl]-N-(2,2,2-trifluoroethyl)benzamide], the IC50 in assay [1] is more than 500 nM; in assay [2], 100 to 500 nM; in assay [3] it was 100 to 500 nM.

`CCNC(=O)c1c(OC)cc(-n2cnc3cc(-c4noc(C)n4)ccc32)cc1OC(F)F` [compound 136, 2-(difluoromethoxy)-N-ethyl-6-methoxy-4-[5-(5-methyl-l,2,4-oxadiazol-3-yl)benzimidazol-1-yl]benzamide]: the IC50 in assay [1], in assay [2] and in assay [3] was more than 500 nM each time.

Turning to `COc1cc(-n2cnc3cc(-c4cnc(C)n4C)ccc32)cc(OC)c1C(=O)NCC(F)(F)F` [compound 138, 4-[5-(2,3-dimethylimidazol-4-yl)benzimidazol-1-yl]-2,6-dimethoxy-N-(2,2,2-trifluoroethyl)benzamide], the IC50 is more than 500 nM in assay [1], 100 to 500 nM in assay [2] and 100 to 500 nM in assay [3].

As to `COc1cc(-n2cnc3cc(-c4cnn(C)c4)ccc32)cc(OC)c1C(=O)N[C@@H]1CCC[C@H]1O` [compound 143, N-[(1R,2R)-2-hydroxycyclopentyl]-2,6-dimethoxy-4-[5-(1-methylpyrazol-4-yl)benzimidazol-1-yl]benzamide], the IC50 fell in the range of 100 to 500 nM in assay [1], 10 to 100 nM in assay [2] and 10 to 100 nM in assay [3].

On to `CCNC(=O)c1c(OC)cc(-n2cnc3cc(-c4nnc(C)[nH]4)ccc32)cc1OC(F)F` [compound 150, 2-(difluoromethoxy)-N-ethyl-6-methoxy-4-[5-(5-methyl-4H-1,2,4-triazol-3-yl)benzimidazol-1-yl]benzamide], for which the IC50 in assay [1], in assay [2] and in assay [3] was more than 500 nM in each case.

For `COc1cc(-n2cnc3cc(-c4c[nH]cn4)ccc32)cc(OC)c1C(=O)NCC(F)(F)F` [compound 153, 4-[5-(1H-imidazol-4-yl)benzimidazol-1-yl]-2,6-dimethoxy-N-(2,2,2-trifluoroethyl)benzamide], the half-maximal inhibitory concentration (IC50) in assay [1], in assay [2] and in assay [3] was 10 to 100 nM each time.

On to `COc1cc(-n2cnc3cc(-c4cnn(C)c4)ccc32)cc(OC)c1C(=O)NC1CCCCC1OC` (stereo not drawn) [compound 161, 2,6-dimethoxy-N-(2-methoxycyclohexyl)-4-[5-(1-methylpyrazol-4-yl)benzimidazol-1-yl]benzamide], for which the half-maximal inhibitory concentration (IC50) in assay [1], in assay [2] and in assay [3] was more than 500 nM throughout.

For the compound `COc1cc(-n2cnc3cc(-c4cnn(C)c4)ccc32)cc(OC)c1C(=O)N1CCC1` [compound 162, azetidin-1-yl-[2,6-dimethoxy-4-[5-(1-methylpyrazol-4-yl)benzimidazol-1-yl]phenyl]methanone], the IC50 in assay [1] lay within 100 to 500 nM; in assay [2], 100 to 500 nM; in assay [3], 10 to 100 nM.

With `COc1cc(-n2cnc3cc(-c4cnn(C)c4)ccc32)cc(OC)c1C(=O)N[C@H]1CCCC[C@@H]1O` [compound 164], the 50% inhibitory concentration (IC50) in assay [1] is 100 to 500 nM; in assay [2], 100 to 500 nM; in assay [3], more than 500 nM.

`COc1cc(-c2cnc3cc(-c4cnn(C)c4)ccn23)cc(OC)c1C(=O)N[C@H]1CC[C@@H]1O` [compound 170]: the values for the IC50 in assay [1], in assay [2] and in assay [3] were 10 to 100 nM, 0.01 to 10 nM and 0.01 to 10 nM, respectively.

For `COc1cc(-n2cnc3cc(-c4cnn(C)c4)ccc32)cc(OC)c1C(=O)N1CC(c2ccccc2)C1` [compound 180, [2,6-dimethoxy-4-[5-(1-methylpyrazol-4-yl)benzimidazol-1-yl]phenyl]-(3-phenylazrtidin-1-yl)methanone], the concentration for half-maximal inhibition (IC50) in assay [1] lay within 10 to 100 nM; in assay [2], 100 to 500 nM; in assay [3], 100 to 500 nM.

Consider `COc1cc(-n2cnc3cc(-c4cnn(C)c4)ccc32)cc(OC)c1C(=O)N1C(C)CC1C` (stereo not drawn) [compound 181, [2,6-dimethoxy-4-[5-(1-methylpyrazol-4-yl)benzimidazol-1-yl]phenyl]-(2,4-dimethylazetidin-1-yl)methanone], for which the 50% inhibitory concentration (IC50) in assay [1], in assay [2] and in assay [3] was more than 500 nM in each case.

`COc1cc(-n2cnc3cc(-c4cnn(C)c4)ccc32)cc(OC)c1C(=O)N1CCC1C` (stereo not drawn) [compound 182, [2,6-dimethoxy-4-[5-(1-methylpyrazol-4-yl)benzimidazol-1-yl]phenyl]-(2-methylazetidin-1-yl)methanone]: the IC50 in assay [1], in assay [2] and in assay [3] was more than 500 nM throughout.

`COc1cc(-n2cnc3cc(-c4cnn(C)c4)ccc32)cc(OC)c1C(=O)N1CC(CO)C1` [compound 183, [2,6-dimethoxy-4-[5-(1-methylpyrazol-4-yl)benzimidazol-1-yl]phenyl]-[3-(hydroxymethyl)azetidin-1-yl]methanone]: the half-inhibitory concentration (IC50) in assay [1], in assay [2] and in assay [3] was 100 to 500 nM each time.

Consider `COc1cc(-n2cnc3cc(-c4cnn(C)c4)ccc32)cc(OC)c1C(=O)N1CC(O)C1` [compound 184, [2,6-dimethoxy-4-[5-(1-methylpyrazol-4-yl)benzimidazol-1-yl]phenyl]-(3-hydroxyazetidin-1-yl)methanone], for which the half-inhibitory concentration (IC50) in assay [1], in assay [2] and in assay [3] was 100 to 500 nM throughout.
